“And” between values parts separate entries of the source, which are not always exact repeats. Equal entries are not always repeated.

For assay [1], the system named is Male Fisher-344 rats. Description: Conditioned avoidance response. Format: in vivo, rat. From the text: The apparatus is a Coulbourn Instruments shuttle operant chamber. Each session equals a total of 50 trials, presented on a 30 second inter-trial interval, and each trial begins with simultaneous illumination of a houselight and rising of a guillotine door. The rat is given 10 seconds to cross over to the other side (an avoidance response) before a 1 mA footshock is initiated. The shock remains on until the rat crosses over to the other side (an escape response) or 10 seconds has elapsed (an escape failure). […] The number of avoidance, escape and escape failure responses during each session is recorded and used for analysis.
Each test compound is administered orally 2 hours prior to testing. Oxo (0.03 mg/kg) is administered subcutaneously 30 minutes prior to testing. Data are analyzed via a one-way (within-group design) Analysis of Variance (ANOVA). In cases of a significant ANOVA (p<0.05), post-hoc comparisons may be made in which compound doses are compared back to the Oxo alone group (paired t-test).

The target in assay [2] is T1, hM3 receptors (Homo sapiens, UniProt P20309).
T1 construct: expressed in transfected cells
Kind of assay: Calcium mobilization (FLIPR), ACh concentration-response curves, CHO hM3 cells. The note with it: CHO cells stably expressing hM3. Format: cell-based. As for the experimental part:
(§1) Automated multiple compound additions are timed by computer program. Cells are pre-incubated with increasing concentration of compounds.
(Calcium flux is commonly read through the fluorescence of an indicator in the cells.)

The target of assay [3] is T2, hM4 receptors (Homo sapiens, UniProt P08173).
T2 construct: expressed in transfected cells
T2 sequence (P08173 1-479): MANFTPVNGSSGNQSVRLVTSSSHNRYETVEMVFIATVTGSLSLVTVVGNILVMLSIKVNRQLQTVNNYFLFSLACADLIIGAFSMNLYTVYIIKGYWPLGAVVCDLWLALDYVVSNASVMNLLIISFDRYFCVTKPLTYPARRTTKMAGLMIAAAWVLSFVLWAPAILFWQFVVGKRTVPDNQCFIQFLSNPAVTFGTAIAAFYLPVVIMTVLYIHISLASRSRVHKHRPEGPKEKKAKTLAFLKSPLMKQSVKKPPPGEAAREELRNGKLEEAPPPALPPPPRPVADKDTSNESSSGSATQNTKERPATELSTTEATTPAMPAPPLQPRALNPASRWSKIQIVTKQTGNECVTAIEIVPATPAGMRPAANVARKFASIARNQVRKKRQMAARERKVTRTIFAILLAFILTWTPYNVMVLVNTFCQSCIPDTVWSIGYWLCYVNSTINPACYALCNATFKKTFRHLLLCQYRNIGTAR
Description: Calcium mobilization (FLIPR), ACh concentration-response curves, AV12 Gα15 hM4 cells. It is filed as cell-based. As for the experimental part: as §1

In assay [4] the target is hM2 receptors (Homo sapiens, UniProt P08172). The note with it: AV12 Gα15 hM2; too modest to be accurately estimated.
Description: Using a calcium-sensitive fluorescent dye, agonist or potentiation activity of a given compound can be detected in a single assay using a Fluorescence Light Imaging Plate Reader (FLIPR) instrument. Cells are plated in Poly-D-Lysine coated black plates/clear bottom (Becton Dickinsons) at 40,000 cells per ml (100 μl/well) in growth media 24 hours prior to running the assay. The medium is removed before the addition of 50 μl fluorescence dye solution (HBSS containing 20 mM Hepes, 10 μM Fluo-3-AM, 0.05% pluronic acid F127; supplemented with 2.5 mM probenecid for CHO cell assays). The cells are incubated with the dye for 75 minutes before replacing with assay buffer (20 mM Hepes in Hanks balanced salt solution (Gibco); supplemented with 2.5 mM probenecid for CHO cells). The plate is transferred to the FLIPR machine (Molecular Devices) for fluorescence recordings. The cells are periodically excited by 488 nm light, and the emitted fluorescent light passed through a 510-570 nm filter and then detected by a cooled CCD camera. Automated multiple compound additions are timed by computer program. Cells are pre-incubated with increasing concentration of compounds. After 2 minutes, a range of acetylcholine concentrations is added to each concentration of compound. […]
Assay [5] has as its target T3, hM5 receptors (Homo sapiens, UniProt P08912).
T3 construct: expressed in transfected cells
T3 sequence (P08912 1-532): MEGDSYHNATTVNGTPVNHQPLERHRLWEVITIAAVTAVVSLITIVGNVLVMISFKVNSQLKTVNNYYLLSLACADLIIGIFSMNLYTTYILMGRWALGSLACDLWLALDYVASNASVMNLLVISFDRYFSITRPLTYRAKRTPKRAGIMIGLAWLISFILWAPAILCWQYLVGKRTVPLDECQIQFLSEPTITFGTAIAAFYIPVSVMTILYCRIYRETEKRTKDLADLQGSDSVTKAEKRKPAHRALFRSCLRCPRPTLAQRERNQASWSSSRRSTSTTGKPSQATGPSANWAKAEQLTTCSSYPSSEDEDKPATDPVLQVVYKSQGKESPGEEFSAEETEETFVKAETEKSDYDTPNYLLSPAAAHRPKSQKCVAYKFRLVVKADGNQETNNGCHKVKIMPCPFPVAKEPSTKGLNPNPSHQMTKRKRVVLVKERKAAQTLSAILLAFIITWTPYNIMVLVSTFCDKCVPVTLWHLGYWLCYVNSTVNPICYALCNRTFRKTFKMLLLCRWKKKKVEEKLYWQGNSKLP
Kind of assay: Calcium mobilization (FLIPR), ACh concentration-response curves, CHO hM5 cells. Format: cell-based. The note with it: CHO cells stably expressing hM5. As for the experimental part:
as §1

Assay [6] concerns the target T4, hM1 receptors (Homo sapiens, UniProt P11229).
T4 construct: expressed in transfected cells
T4 sequence (P11229 1-460): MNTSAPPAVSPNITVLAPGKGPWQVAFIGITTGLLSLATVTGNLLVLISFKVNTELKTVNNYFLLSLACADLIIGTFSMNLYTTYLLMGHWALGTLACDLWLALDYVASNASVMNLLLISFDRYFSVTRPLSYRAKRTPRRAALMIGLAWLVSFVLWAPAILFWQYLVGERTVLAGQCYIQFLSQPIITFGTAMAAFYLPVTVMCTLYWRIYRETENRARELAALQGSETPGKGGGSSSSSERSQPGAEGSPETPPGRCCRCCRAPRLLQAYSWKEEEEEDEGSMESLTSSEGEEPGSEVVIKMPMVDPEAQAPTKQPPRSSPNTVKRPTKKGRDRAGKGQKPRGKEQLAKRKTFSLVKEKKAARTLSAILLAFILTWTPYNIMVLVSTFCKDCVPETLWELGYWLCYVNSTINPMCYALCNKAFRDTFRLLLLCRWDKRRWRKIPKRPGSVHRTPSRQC
Description: Calcium mobilization (FLIPR), ACh concentration-response curves, CHO hM1 cells. It is filed as cell-based. Conditions: CHO cells stably expressing hM1. As for the experimental part:
as §1

T1 sequence (P20309 whole entry): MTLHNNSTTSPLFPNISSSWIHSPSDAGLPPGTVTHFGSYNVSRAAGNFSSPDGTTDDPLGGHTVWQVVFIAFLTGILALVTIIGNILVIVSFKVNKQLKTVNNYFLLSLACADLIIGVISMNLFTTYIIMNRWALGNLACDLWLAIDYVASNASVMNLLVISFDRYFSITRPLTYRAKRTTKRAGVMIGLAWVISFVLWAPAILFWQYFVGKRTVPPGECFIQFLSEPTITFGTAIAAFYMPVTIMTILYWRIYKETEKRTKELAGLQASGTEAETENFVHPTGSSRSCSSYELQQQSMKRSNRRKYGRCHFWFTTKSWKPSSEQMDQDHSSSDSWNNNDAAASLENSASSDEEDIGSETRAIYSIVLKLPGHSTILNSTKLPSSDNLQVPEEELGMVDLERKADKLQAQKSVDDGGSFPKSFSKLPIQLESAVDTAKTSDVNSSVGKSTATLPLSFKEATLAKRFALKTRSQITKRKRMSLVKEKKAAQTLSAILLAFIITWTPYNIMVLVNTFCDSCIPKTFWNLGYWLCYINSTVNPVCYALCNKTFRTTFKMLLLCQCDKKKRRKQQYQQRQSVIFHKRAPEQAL
Chain of hM2 receptors (P08172 whole entry): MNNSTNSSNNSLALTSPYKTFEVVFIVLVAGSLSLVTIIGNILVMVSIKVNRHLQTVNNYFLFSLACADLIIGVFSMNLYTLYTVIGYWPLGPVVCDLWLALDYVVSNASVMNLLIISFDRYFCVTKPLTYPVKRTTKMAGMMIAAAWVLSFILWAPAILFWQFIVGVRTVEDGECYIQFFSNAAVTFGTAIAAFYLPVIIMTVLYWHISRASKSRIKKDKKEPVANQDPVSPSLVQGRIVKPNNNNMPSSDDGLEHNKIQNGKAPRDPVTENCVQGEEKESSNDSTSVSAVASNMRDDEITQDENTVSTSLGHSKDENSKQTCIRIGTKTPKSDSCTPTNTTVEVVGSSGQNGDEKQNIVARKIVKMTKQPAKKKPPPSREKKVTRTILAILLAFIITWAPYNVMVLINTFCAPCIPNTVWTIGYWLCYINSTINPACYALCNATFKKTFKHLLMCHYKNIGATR

On to `Cc1c(Cl)c(OCCN2CCOCC2)nc2sc(C(=O)NC3CC3)c(N)c12.Cl` [Example 28, 3-Amino-5-chloro-4-methyl-6-(2-morpholin-4-yl-ethoxy)-thieno[2,3-b]pyridine-2-carboxylic acid cyclopropylamide hydrochloride], for which the “Percent Avoidance Response (Mean ± S.E.M.), Oxo + Test Compound 30 mg/kg” value in assay [1] (test compound 30 mg/kg orally 2 hours prior, Oxo 0.03 mg/kg s.c. 30 minutes prior) came to 84 ± 6.3%.

As for `Cc1c(Cl)c(OCCN2CCOCC2)nc2sc(C(=O)NC3CC3)c(N)c12` [Example 6, 3-Amino-5-chloro-4-methyl-6-(2-morpholin-4-yl-ethoxy)-thieno[2,3-b]pyridine-2-carboxylic acid cyclopropylamide], the “Percent Avoidance Response (Mean ± S.E.M.), Oxo + Test Compound 10 mg/kg” value in assay [1] (test compound 10 mg/kg orally 2 hours prior, Oxo 0.03 mg/kg s.c. 30 minutes prior) is reported as 90 ± 3.4%.

What is called Kd is the equilibrium constant for the complex coming apart. On to `COc1nc2sc(C(=O)NC3CC3)c(N)c2c(C)c1Cl` [Example 1, 3-Amino-5-chloro-6-methoxy-4-methyl-thieno[2,3-b]pyridine-2-carboxylic acid cyclopropylamide], for which the “allosteric effect on ACh response” value was “No significant allosteric effect” in assay [2], “modest allosteric effect” in assay [4], “No significant allosteric effect” in assay [5] and “No significant allosteric effect” in assay [6]. Moreover, in assay [3], the Kd was 200 ± 42 nM. The “potentiation of acetylcholine versus carbachol” value in assay [3] (FLIPR, both non-selective full muscarinic agonists, receptor subtype not given) is “potentiated in an equivalent fashion”. Moreover, in assay [3] (estimated, FLIPR, ACh curves, AV12 Gα15 hM4, duplicates, at least three experiments), the “cooperatively factor for hM4 receptors” value is recorded as 34.5±3.5.

Regarding `Cc1c(Cl)c(OCC(=O)N2CCN(C)CC2)nc2sc(C(=O)NC3CC3)c(N)c12` [Example 10], in assay [1] (rat, in vivo), the “Percent Avoidance Response (Mean ± S.E.M.), Oxo + Test Compound 10 mg/kg” value was determined as 85 ± 5.3%.

On to oxotremorine sesquifumarate, for which the “Percent Avoidance Response (Mean ± S.E.M.), Oxo alone” value in assay [1] (Oxo 0.03 mg/kg subcutaneously 30 minutes prior to testing, first Oxo alone group) was 93 ± 1.8% and 93 ± 1.2% and 89 ± 3.8% and 92 ± 1.5%. Further, the “Percent Avoidance Response (Mean ± S.E.M.), Oxo alone (retest)” value in assay [1] (retest of Oxo alone, 0.03 mg/kg subcutaneously 30 minutes prior to testing, 0.03 mg/kg) is 91 ± 0.9% and 90 ± 2.5% and 89 ± 3.2% and 91 ± 2.0%.
